Test results as given in publication PMC6445160, “Naphthoquinone amino acid derivatives, synthesis and biological activity as proteasome inhibitors” (Journal of Enzyme Inhibition and Medicinal Chemistry, 2017).
Where two headings read alike, the source gives them in different places.

Legend:
Experiment in all cases: fluorogenic AMC peptide hydrolysis
Type in all cases: biochemical
[1] = test system: T1, 20S proteasome β5 subunit, chymotrypsin-like (ChT-L) activity; settings: Suc-LLVY-AMC, 37 °C, 30 min, enzyme pretreated with compound
T1 construct: gene PSMB5; native 20S proteasome purified from lymphoblastoid cells

[2] = test system: T1, 20S proteasome β5 subunit, chymotrypsin-like (ChT-L) activity; settings: Suc-LLVY-AMC, 37 °C, 30 min, enzyme pretreated with compound; read-out: IC50 (μm)^aChT-L
Text: fluorogenic AMC peptide hydrolysis on 20S proteasome β5 subunit, chymotrypsin-like (ChT-L) activity

[3] = test system: T2, 20S proteasome β2 subunit, trypsin-like (T-L) activity; settings: Boc-LRR-AMC, 37 °C, 30 min, enzyme pretreated with compound
T2 construct: gene PSMB7; native 20S proteasome purified from lymphoblastoid cells
Text: fluorogenic AMC peptide hydrolysis on 20S proteasome β2 subunit, trypsin-like (T-L) activity

| Compound | IC50 [1] | IC50 [2] | IC50 [3] |
| --- | --- | --- | --- |
| 1-NaftCO-Asn-NH-cHx-NH-ClNafQ [compound 40] | > 100 µM |  |  |
| 1-NaftCO-Leu-NH-cHx-NH-ClNafQ [compound 36] |  | 59.3 ± 6.42 µM |  |
| 1-NaftCO-Phe-NH-cHx-NH-ClNafQ [compound 44] | > 100 µM |  |  |
| 1-NaftCO-Ser-NH-cHx-NH-ClNafQ [compound 48] | > 100 µM |  |  |
| Cc1c(O)cccc1C(=O)N[C@@H](CC(C)C)C(=O)NCCNC1=C(Cl)C(=O)c2ccccc2C1=O [compound 1, HMB-Leu-NH-(CH2)2-NH-ClNafQ] |  | > 100 µM | 77.4 ± 6.51 µM |
| CC(C)C[C@H](NC(=O)c1ccc([N+](=O)[O-])cc1)C(=O)NCCNC1=C(Cl)C(=O)c2ccccc2C1=O [compound 2, NBz-Leu-NH-(CH2)2-NH-ClNafQ] |  | > 100 µM | 65.3 ± 5.91 µM |
| CC(C)C[C@H](NC(=O)c1ccccc1)C(=O)NCCNC1=C(Cl)C(=O)c2ccccc2C1=O [compound 3, Bz-Leu-NH-(CH2)2-NH-ClNafQ] |  | > 100 µM | 58.4 ± 5.13 µM |
| CC(C)C[C@H](NC(=O)c1cccc2ccccc12)C(=O)NCCNC1=C(Cl)C(=O)c2ccccc2C1=O [compound 4, 1-NaftCO-Leu-NH-(CH2)2-NH-ClNafQ] |  | 0.82 ± 0.08 µM | 21.1 ± 1.85 µM |
| Cc1c(O)cccc1C(=O)N[C@@H](CC(N)=O)C(=O)NCCNC1=C(Cl)C(=O)c2ccccc2C1=O [compound 5, HMB-Asn-NH-(CH2)2-NH-ClNafQ] |  | 8.47 ± 0.75 µM | 68.4 ± 5.14 µM |
| NC(=O)C[C@H](NC(=O)c1ccc([N+](=O)[O-])cc1)C(=O)NCCNC1=C(Cl)C(=O)c2ccccc2C1=O [compound 6, NBz-Asn-NH-(CH2)2-NH-ClNafQ] |  | 0.92 ± 0.09 µM | 17.2 ± 1.09 µM |
| NC(=O)C[C@H](NC(=O)c1ccccc1)C(=O)NCCNC1=C(Cl)C(=O)c2ccccc2C1=O [compound 7, Bz-Asn-NH-(CH2)2-NH-ClNafQ] |  | 7.99 ± 0.67 µM | 49.7 ± 3.87 µM |
| NC(=O)C[C@H](NC(=O)c1cccc2ccccc12)C(=O)NCCNC1=C(Cl)C(=O)c2ccccc2C1=O [compound 8, 1-NaftCO-Asn-NH-(CH2)2-NH-ClNafQ] |  | 76.2 ± 6.82 µM | 35.2 ± 2.77 µM |
| Cc1c(O)cccc1C(=O)N[C@@H](Cc1ccccc1)C(=O)NCCNC1=C(Cl)C(=O)c2ccccc2C1=O [compound 9, HMB-Phe-NH-(CH2)2-NH-ClNafQ] |  | 0.85 ± 0.07 µM | > 100 µM |
| O=C(N[C@@H](Cc1ccccc1)C(=O)NCCNC1=C(Cl)C(=O)c2ccccc2C1=O)c1ccc([N+](=O)[O-])cc1 [compound 10, NBz-Phe-NH-(CH2)2-NH-ClNafQ] |  | 0.77 ± 0.06 µM | 35.4 ± 2.91 µM |
| O=C(N[C@@H](Cc1ccccc1)C(=O)NCCNC1=C(Cl)C(=O)c2ccccc2C1=O)c1ccccc1 [compound 11, Bz-Phe-NH-(CH2)2-NH-ClNafQ] |  | 6.22 ± 0.48 µM | 53.2 ± 6.7 µM |
| O=C1C(Cl)=C(NCCNC(=O)[C@H](Cc2ccccc2)NC(=O)c2cccc3ccccc23)C(=O)c2ccccc21 [compound 12, 1-NaftCO-Phe-NH-(CH2)2-NH-ClNafQ] |  | 9.14 ± 1.02 µM | 49.8 ± 3.97 µM |
| Cc1c(O)cccc1C(=O)N[C@@H](CO)C(=O)NCCNC1=C(Cl)C(=O)c2ccccc2C1=O [compound 13, HMB-Ser-NH-(CH2)2-NH-ClNafQ] | > 100 µM |  | > 100 µM |
| O=C(NC(CO)C(=O)NCCNC1=C(Cl)C(=O)c2ccccc2C1=O)c1ccc([N+](=O)[O-])cc1 (stereo not drawn) [compound 14, NBz-Ser-NH-(CH2)2-NH-ClNafQ] |  | 83.5 ± 8.03 µM | 63.4 ± 7.01 µM |
| O=C(N[C@@H](CO)C(=O)NCCNC1=C(Cl)C(=O)c2ccccc2C1=O)c1ccccc1 [compound 15, Bz-Ser-NH-(CH2)2-NH-ClNafQ] |  | 24.1 ± 1.98 µM | 53.8 ± 4.88 µM |
| O=C1C(Cl)=C(NCCNC(=O)[C@H](CO)NC(=O)c2cccc3ccccc23)C(=O)c2ccccc21 [compound 16, 1-NaftCO-Ser-NH-(CH2)2-NH-ClNafQ] | > 100 µM |  | > 100 µM |
| Cc1c(O)cccc1C(=O)N[C@@H](CC(C)C)C(=O)NCCCCNC1=C(Cl)C(=O)c2ccccc2C1=O [compound 17, HMB-Leu-NH-(CH2)4-NH-ClNafQ] |  | 11.5 ± 1.02 µM | > 100 µM |
| CC(C)C[C@H](NC(=O)c1ccccc1)C(=O)NCCCCNC1=C(Cl)C(=O)c2ccccc2C1=O [compound 19, Bz-Leu-NH-(CH2)4-NH-ClNafQ] |  | 10.1 ± 0.7 µM |  |
| CC(C)C[C@H](NC(=O)c1cccc2ccccc12)C(=O)NCCCCNC1=C(Cl)C(=O)c2ccccc2C1=O [compound 20, 1-NaftCO-Leu-NH-(CH2)4-NH-ClNafQ] |  | 49.3 ± 5.02 µM |  |
| Cc1c(O)cccc1C(=O)N[C@@H](CC(N)=O)C(=O)NCCCCNC1=C(Cl)C(=O)c2ccccc2C1=O [compound 21, HMB-Asn-NH-(CH2)4-NH-ClNafQ] |  | 65.4 ± 6.5 µM |  |

| Compound | IC50 [1] | IC50 [2] | IC50 [3] |
| --- | --- | --- | --- |
| NC(=O)CC(NC(=O)c1ccc([N+](=O)[O-])cc1)C(=O)NCCCCNC1=C(Cl)C(=O)c2ccccc2C1=O (stereo not drawn) [compound 22, NBz-Asn-NH-(CH2)4-NH-ClNafQ] |  | 28.5 ± 3.05 µM |  |
| NC(=O)C[C@H](NC(=O)c1ccccc1)C(=O)NCCCCNC1=C(Cl)C(=O)c2ccccc2C1=O [compound 23, Bz-Asn-NH-(CH2)4-NH-ClNafQ] |  | 24.2 ± 2.05 µM |  |
| NC(=O)C[C@H](NC(=O)c1cccc2ccccc12)C(=O)NCCCCNC1=C(Cl)C(=O)c2ccccc2C1=O [compound 24, 1-NaftCO-Asn-NH-(CH2)4-NH-ClNafQ] |  | 78.3 ± 6.95 µM |  |
| Cc1c(O)cccc1C(=O)N[C@@H](Cc1ccccc1)C(=O)NCCCCNC1=C(Cl)C(=O)c2ccccc2C1=O [compound 25, HMB-Phe-NH-(CH2)4-NH-ClNafQ] |  | 17.5 ± 1.07 µM |  |
| O=C(NC(Cc1ccccc1)C(=O)NCCCCNC1=C(Cl)C(=O)c2ccccc2C1=O)c1ccc([N+](=O)[O-])cc1 (stereo not drawn) [compound 26, NBz-Phe-NH-(CH2)4-NH-ClNafQ] |  | 9.1 ± 0.6 µM |  |
| O=C(N[C@@H](Cc1ccccc1)C(=O)NCCCCNC1=C(Cl)C(=O)c2ccccc2C1=O)c1ccccc1 [compound 27, Bz-Phe-NH-(CH2)4-NH-ClNafQ] |  | 10.1 ± 0.7 µM |  |
| O=C1C(Cl)=C(NCCCCNC(=O)[C@H](Cc2ccccc2)NC(=O)c2cccc3ccccc23)C(=O)c2ccccc21 [compound 28, 1-NaftCO-Phe-NH-(CH2)4-NH-ClNafQ] |  | 9.3 ± 1.02 µM | 79.7 ± 6.97 µM |
| Cc1c(O)cccc1C(=O)N[C@@H](CO)C(=O)NCCCCNC1=C(Cl)C(=O)c2ccccc2C1=O [compound 29, HMB-Ser-NH-(CH2)4-NH-ClNafQ] |  | 45.7 ± 2.59 µM | 80.2 ± 6.91 µM |
| O=C(NC(CO)C(=O)NCCCCNC1=C(Cl)C(=O)c2ccccc2C1=O)c1ccc([N+](=O)[O-])cc1 (stereo not drawn) [compound 30, NBz-Ser-NH-(CH2)4-NH-ClNafQ] |  | 88.7 ± 8.03 µM | 83.3 ± 7.21 µM |
| O=C(N[C@@H](CO)C(=O)NCCCCNC1=C(Cl)C(=O)c2ccccc2C1=O)c1ccccc1 [compound 31, Bz-Ser-NH-(CH2)4-NH-ClNafQ] |  | 84.1 ± 6.08 µM |  |
| O=C1C(Cl)=C(NCCCCNC(=O)[C@H](CO)NC(=O)c2cccc3ccccc23)C(=O)c2ccccc21 [compound 32, 1-NaftCO-Ser-NH-(CH2)4-NH-ClNafQ] |  | > 100 µM | 60.8 ± 4.88 µM |
| Bz-Asn-NH-cHx-NH-ClNafQ [compound 39] | > 100 µM |  |  |
| Bz-Leu-NH-cHx-NH-ClNafQ [compound 35] |  | 23.1 ± 1.7 µM |  |
| Bz-Phe-NH-cHx-NH-ClNafQ [compound 43] |  | 73.3 ± 3.9 µM |  |
| Bz-Ser-NH-cHx-NH-ClNafQ [compound 47] | > 100 µM |  |  |
| HMB-Asn-NH-cHx-NH-ClNafQ [compound 37] | > 100 µM |  |  |
| HMB-Leu-NH-cHx-NH-ClNafQ [compound 33] | > 100 µM |  |  |
| HMB-Phe-NH-cHx-NH-ClNafQ [compound 41] | > 100 µM |  |  |
| HMB-Ser-NH-cHx-NH-ClNafQ [compound 45] | > 100 µM |  |  |
| NBz-Asn-NH-cHx-NH-ClNafQ [compound 38] | > 100 µM |  |  |
| NBz-Leu-NH-(CH2)4-NH-ClNafQ [compound 18] |  | 8.4 ± 0.72 µM |  |
| NBz-Leu-NH-cHx-NH-ClNafQ [compound 34] |  | 42.1 ± 5.02 µM |  |
| NBz-Phe-NH-cHx-NH-ClNafQ [compound 42] |  | 82.1 ± 6.52 µM |  |
| NBz-Ser-NH-cHx-NH-ClNafQ [compound 46] | > 100 µM |  |  |
